From ChEMBL document CHEMBL1139600, “Synthesis, in vivo and in vitro biological activity of novel azaline B analogs” (Bioorg Med Chem Lett, 2005)
*1 amine or outer side, *2 acyl side, *3 side chain or, on linkers, in order; H or OH if unused. Where a SMILES comes first, the peptide text is derived from it. [ ]: non-standard residue; d: D form. Phe(4-NH(5-NH2triazol-3-yl)) = Nc1nc(Nc2ccc(C[C@H](N)C(=O)O)cc2)n[nH]1; X1 = Nc1nc(Nc2ccc(C[C@@H](N[*:1])C(=O)[*:2])cc2)n[nH]1; dPhe(4-Cl) = N[C@H](Cc1ccc(Cl)cc1)C(=O)O; d2Nal = N[C@H](Cc1ccc2ccccc2c1)C(=O)O; Lys(iPr) = CC(C)NCCCC[C@H](N)C(=O)O; d3Pal = N[C@H](Cc1cccnc1)C(=O)O

Tests used:
[1] = target: T1, Gonadotropin-releasing hormone receptor (Homo sapiens, UniProt P30968); test: (§1) In vitro inhibition of human gonadotropin-releasing hormone expressed in HEK293 cells; type: cell-based
T1 sequence (P30968 whole entry): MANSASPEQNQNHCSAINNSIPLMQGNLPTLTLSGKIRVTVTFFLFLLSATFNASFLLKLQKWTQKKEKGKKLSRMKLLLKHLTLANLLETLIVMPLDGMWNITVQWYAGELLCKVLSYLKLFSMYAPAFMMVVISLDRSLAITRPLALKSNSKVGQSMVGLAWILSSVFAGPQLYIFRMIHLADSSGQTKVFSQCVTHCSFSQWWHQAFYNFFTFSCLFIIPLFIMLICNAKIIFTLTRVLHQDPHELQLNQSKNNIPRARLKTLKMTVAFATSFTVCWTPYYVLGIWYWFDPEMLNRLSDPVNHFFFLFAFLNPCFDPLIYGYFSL

[2] = target: T1, Gonadotropin-releasing hormone receptor; test: as §1; type: cell-based; remark: listed apart in the source

| SMILES | IC50 [1] [nM] | IC50 [2] [nM] |
| --- | --- | --- |
| CC(=O)N[C@H](Cc1ccc2ccccc2c1)C(=O)N[C@H](Cc1ccc(Cl)cc1)C(=O)N[C@H](Cc1cccnc1)C(=O)N[C@@H](CO)C(=O)N[C@@H](Cc1ccc(NCC(=O)n2cc(C)c(=O)[nH]c2=O)cc1)C(=O)N[C@H](Cc1ccc(NC(N)=O)cc1)C(=O)N[C@@H](CC(C)C)C(=O)N[C@@H](CCCCNC(C)C)C(=O)N1CCC[C@H]1C(=O)N[C@H](C)C(N)=O | 2.46 | 2.51 |
| CC(=O)N[C@H](Cc1ccc2ccccc2c1)C(=O)N[C@H](Cc1ccc(Cl)cc1)C(=O)N[C@H](Cc1cccnc1)C(=O)N[C@@H](CO)C(=O)N[C@@H](Cc1ccc(NC(=O)NC(=O)[C@H](N)CCC(N)=O)cc1)C(=O)N[C@H](Cc1ccc(NC(N)=O)cc1)C(=O)N[C@@H](CC(C)C)C(=O)N[C@@H](CCCCNC(C)C)C(=O)N1CCC[C@H]1C(=O)N[C@H](C)C(=O)O | 6.86 | 6.31 |
| CC(=O)N[C@H](Cc1ccc2ccccc2c1)C(=O)N[C@H](Cc1ccc(Cl)cc1)C(=O)N[C@H](Cc1cccnc1)C(=O)N[C@@H](CO)C(=O)N[C@@H](Cc1ccc(NC(=O)NC(=O)[C@@H](N)CC(N)=O)cc1)C(=O)N[C@H](Cc1ccc(NC(N)=O)cc1)C(=O)N[C@@H](CC(C)C)C(=O)N[C@@H](CCCCNC(C)C)C(=O)N1CCC[C@H]1C(=O)N[C@H](C)C(=O)O | 2.37 | 2.51 |
| CC(=O)N[C@H](Cc1ccc2ccccc2c1)C(=O)N[C@H](Cc1ccc(Cl)cc1)C(=O)N[C@H](Cc1cccnc1)C(=O)N[C@@H](CO)C(=O)N[C@@H](Cc1ccc(NC(=O)C(N)CCN)cc1)C(=O)N[C@H](Cc1ccc(NC(N)=O)cc1)C(=O)N[C@@H](CC(C)C)C(=O)N[C@@H](CCCCNC(C)C)C(=O)N1CCC[C@H]1C(=O)N[C@H](C)C(=O)O (some centres undefined) | 3.53 | 3.16 |
| CC(=O)N[C@H](Cc1ccc2ccccc2c1)C(=O)N[C@H](Cc1ccc(Cl)cc1)C(=O)N[C@H](Cc1cccnc1)C(=O)N[C@@H](CO)C(=O)N[C@@H](Cc1ccc(NC(=O)C(N)CN)cc1)C(=O)N[C@H](Cc1ccc(NC(N)=O)cc1)C(=O)N[C@@H](CC(C)C)C(=O)N[C@@H](CCCCNC(C)C)C(=O)N1CCC[C@H]1C(=O)N[C@H](C)C(=O)O (some centres undefined) | 6.37 | 6.31 |
| CC(C)C[C@H](NC(=O)[C@@H](Cc1ccc(NC(N)=O)cc1)NC(=O)[C@H](Cc1ccc(NC(=O)C(N)CN)cc1)NC(=O)[C@H](CO)NC(=O)[C@@H](Cc1cccnc1)NC(=O)[C@@H](Cc1ccc(Cl)cc1)NC(=O)[C@H](N)Cc1ccc2ccccc2c1)C(=O)N[C@@H](CCCCNC(C)C)C(=O)N1CCC[C@H]1C(=O)N[C@H](C)C(=O)O (some centres undefined) | 2.82 | 3.16 |

Now those with a lower IC50 [2], led by results:

| IC50 [1] [nM] | IC50 [2] [nM] | SMILES |
| --- | --- | --- |
| 1.78 | 2 | CC(=O)N[C@H](Cc1ccc2ccccc2c1)C(=O)N[C@H](Cc1ccc(Cl)cc1)C(=O)N[C@H](Cc1cccnc1)C(=O)N[C@@H](CO)C(=O)N[C@@H](Cc1ccc(NC(=O)C2CCNC(=O)N2)cc1)C(=O)N[C@H](Cc1ccc(NC(N)=O)cc1)C(=O)N[C@@H](CC(C)C)C(=O)N[C@@H](CCCCNC(C)C)C(=O)N1CCC[C@H]1C(=O)N[C@H](C)C(N)=O (some centres undefined) |
| 2.22 | 2 | CC(=O)N[C@H](Cc1ccc2ccccc2c1)C(=O)N[C@H](Cc1ccc(Cl)cc1)C(=O)N[C@H](Cc1cccnc1)C(=O)N[C@@H](CO)C(=O)N[C@@H](Cc1ccc(NC(=O)NC(=O)[C@H](N)CC(N)=O)cc1)C(=O)N[C@H](Cc1ccc(NC(N)=O)cc1)C(=O)N[C@@H](CC(C)C)C(=O)N[C@@H](CCCCNC(C)C)C(=O)N1CCC[C@H]1C(=O)N[C@H](C)C(=O)O |
| 1.85 | 2 | CC(=O)N[C@H](Cc1ccc2ccccc2c1)C(=O)N[C@H](Cc1ccc(Cl)cc1)C(=O)N[C@H](Cc1cccnc1)C(=O)N[C@@H](CO)C(=O)N[C@@H](Cc1ccc(NC(=O)[C@@H]2CCC(=O)N2)cc1)C(=O)N[C@H](Cc1ccc(NC(N)=O)cc1)C(=O)N[C@@H](CC(C)C)C(=O)N[C@@H](CCCCNC(C)C)C(=O)N1CCC[C@H]1C(=O)N[C@H](C)C(=O)O |
|  | 1.26 | CC(=O)N[C@H](Cc1ccc2ccccc2c1)C(=O)N[C@H](Cc1ccc(Cl)cc1)C(=O)N[C@H](Cc1cccnc1)C(=O)N[C@@H](CO)C(=O)N[C@@H](Cc1ccc(Nc2n[nH]c(N)n2)cc1)C(=O)N[C@H](Cc1ccc(Nc2n[nH]c(N)n2)cc1)C(=O)N[C@@H](CC(C)C)C(=O)N[C@@H](CCCCNC(C)C)C(=O)N1CCC[C@H]1C(=O)N[C@H](C)C(N)=O (Ac-[d2Nal][dPhe(4-Cl)][d3Pal]S[Phe(4-NH(5-NH2triazol-3-yl))][X1]L[Lys(iPr)]P[dA]-NH2) |
